Measured values taken from article PMC9145754, “Novel Soloxolone Amides as Potent Anti-Glioblastoma Candidates: Design, Synthesis, In Silico Analysis and Biological Activities In Vitro and In Vivo” (Pharmaceuticals, 2022).

What was measured:
B16 cells = assay: MTT cytotoxicity assay, B16; type: cell-based, murine; details: Mus musculus, 24 h, read-out: IC50, Melanoma, B16
Experimental: In the first step of the study, we analyzed the cytotoxicity of novel soloxolone derivatives 1–12 in a panel of tumor cells, including human cervical carcinoma HeLa, human duodenal carcinoma HuTu-80 and murine melanoma B16 cells, as well as human non-transformed hFF3 foreskin fibroblasts. The cells were treated with derivatives for 24 h and cell viability was evaluated by 3-(4,5-dimethylthiazol-2-yl)-2,5-diphenyltetrazolium bromide (MTT) assay. SM was used as the reference compound.
(§1) The cells in the exponential growth phase were seeded in quadruplicate in 96-well plates at a density of 1 × 10^4 cells/well for HeLa, U87, U118, KELLY and Neuro2a cells; 1.5 × 10^4 cells/well for HuTu-80 cells; 2 × 10^4 cells/well for B16 cells; and 7 × 10^3 cells/well for hFF3 fibroblasts. Cells were incubated under standard conditions overnight followed by their treatment with the investigated compounds (1–20 µM) for 24 h. Then, 10 µL of MTT solution was added to the cells to a final concentration of 0.5 mg/mL and plates were placed under standard conditions for 3 h followed by an aspiration of MTT-containing medium and a dissolution of formazan crystals with 100 µL of DMSO. The absorbance of each well was read at test and reference wavelengths of 570 and 620 nm, respectively, on a Multiscan RC plate reader (Thermo LabSystems, Helsinki, Finland).

U118 cells = assay: Colony formation assay, U118; type: cell-based, human; details: 14 days
Experimental: To evaluate the antitumor potential of 12 more comprehensively, its effects at non-toxic concentrations (25–500 nM; cell survival of ≥90%) on a range of metastatic-related processes in glioblastoma cells were studied. Firstly, we investigated the inhibitory activity of 12 on the clonogenic capacity of tumor cells in vitro, which reflects their ability to form colonies from single cells which characterizes the stemness of tumor cells and plays a crucial role in metastasis.
U118 cells were seeded in 96-well plates in six replicates at a density of 200 cells/well and treated with 12 at 25–500 nM for 14 days under standard conditions. The culture media were replaced with fresh media containing corresponding concentrations of 12 every 6 days. After the incubation time, cell colonies were fixed with 4% paraformaldehyde, stained with crystal violet dye (0.1% w/v) and photographed using the iBright 1500 Imaging System (Invitrogen, USA). The percentage of area covered by cell colonies was computed using the ColonyArea ImageJ plugin [95].

U87 cells [1] = assay: Cytotoxicity of 12 with chloroquine (MTT); type: cell-based; details: U87, 12 with chloroquine 50 µM, 24 h
Experimental: (§2) Given that pentacyclic triterpenoids can induce tumor cell death not only by the apoptotic pathway but also by triggering autophagy, we next studied whether 12 stimulated autophagy in glioblastoma cells. For this, U87 and U118 cells were incubated with tryptamide 12 at toxic concentrations (2 or 4 µM) for 24 h followed by cell staining with monodansylcadaverine (MDC), a fluorescent dye specifically labeling autophagosomes. […] Considering that autophagy can be associated not only with cell death but also with cytoprotection, its role in the cytotoxicity of 12 in glioblastoma cells was further studied.
In order to evaluate whether autophagy plays an important role in compound 12-induced glioblastoma cell death, U87 cells were seeded in quadruplicate at a density of 1 × 10^4 cells/well in 96-well plates, incubated overnight under standard conditions and co-treated with 12 at 1–5 μM and chloroquine (CQ) at 50 μM for 24 h. Then, cell viability was measured using an MTT test and the curves of cytotoxicity of 12 in the presence or absence of CQ were compared.

U87 cells [2] = assay: MTT cytotoxicity assay, U87; type: cell-based; details: Homo sapiens, U-87 MG, 24 h, read-out: IC50, Glioblastoma, U87
Experimental: (§3) To evaluate the antitumor activity of the synthesized soloxolone amides in brain tumor cells, the cytotoxicity of compounds 4–12, predicted as BBB-permeable (Figure 3), was further analyzed in human glioblastoma U87 and U118 cells, as well as human neuroblastoma KELLY and murine neuroblastoma Neuro2a cells.
as §1

[3] = Toxicity assessment (body weight, organ indexes); type: in vivo, Balb/C nude mice
Experimental: (seven injections were performed in total) and brain tissue was collected 48 h after the last injection of 12 followed by a high-performance liquid chromatography–tandem mass spectrometry (HPLC–MS/MS) analysis of the obtained samples (Figure 3D). This treatment regimen was chosen due to its common usage in the evaluation of antitumor activity of various low-molecular weight compounds in xenograft murine models. […] Before the HPLC–MS/MS analysis, chromatographic conditions and mass spectrometer parameters for detecting both semisynthetic triterpenoid 12 and the internal standard in the multiple reaction monitoring (MRM) mode were optimized. The optimized parameters are given in Supplementary Table S1.
During the experiment, the general status of the animals and body weight was monitored. At the end of the experiment, organs were collected and organ indexes were calculated as (organ weight/body weight) × 100%.

Neuro2a cells = assay: MTT cytotoxicity assay, Neuro2a; type: cell-based, murine; details: Mus musculus, N2a, 24 h, read-out: IC50, Neuroblastoma, Neuro2a
Experimental: as §3, §1

U87 cells [4] = assay: Autophagy, MDC staining, U87; type: cell-based, human; details: 24 h
Experimental: as §2
To evaluate the ability of 12 to induce autophagy, U87 and U118 cells were seeded at 2.8 × 10^5 cells/well in 6-well plates and incubated under standard conditions overnight followed by their treatment with 12 in amounts of 2 and 4 μM for 24 h. Then, the cells were collected and washed with PBS as described above and resuspended in 500 µL of PBS containing monodancylcadaverine (MDC) at 50 μM. After incubation for 15 min under standard conditions, the cells were washed with PBS and analyzed by flow cytometry. For each sample, 10,000 events were acquired.

U87 cells [5] = assay: Mitochondrial membrane potential/apoptosis, MitoTracker Red and Annexin V; type: cell-based, human; details: U87, 12 at 4 µM, control 5.7%
Experimental: In order to doublecheck the ΔψM-targeted effect of 12 and to assess the correlation between dissipation of ΔψM and induction of apoptosis in triterpenoid-treated glioblastoma cells, U87 cells were incubated with 12 at 4 µM for 6–24 h followed by their staining with a mix of MitoTracker Red, a fluorescent dye accumulated within mitochondria depending on their ΔψM, and fluorophore-conjugated annexin V, used to visualize apoptotic cells.
[…] cells plated in 6-well plates were treated with 12 at 4 μM for 6, 18 and 24 h and stained using a Mitochondrial Membrane Potential/Annexin V Apoptsis Kit (Molecular Probes, USA) according to the manufacturer’s instructions. Briefly, harvested cells were incubated in Annexin-binding buffer containing MitoTracker Red at 40 nM for 30 min under standard conditions. After that, the cells were washed with PBS, resuspended in Annexin-binding buffer containing 5 µL of Annexin V-Alexa Fluor 488 and incubated at room temperature for 15 min. After the incubation time, the cells were analyzed by flow cytometry. For each sample, 10,000 events were acquired.

CC1(C)C(=O)C(C#N)=C[C@]2(C)C3=CC(=O)[C@@H]4[C@@H]5C[C@@](C)(C(=O)NCCc6c[nH]c7ccccc67)CC[C@]5(C)CC[C@@]4(C)[C@]3(C)CC[C@@H]12 [compound 12]
IC50 (B16 cells): 1500 ± 200 nM
reduction in the area of cell colonies compared to the control (U118 cells; U118, 12 at 200 nM): 1.4 fold
reduction in the area of cell colonies compared to the control (U118 cells; U118, 12 at 500 nM): 2 fold
effect of chloroquine on cytotoxic activity of 12 (U87 cells [1]): did not affect the cytotoxic activity
IC50 (U87 cells [2]): 1900 ± 100 nM
organ indexes in experimental and control groups ([3]; U87 glioblastoma-bearing mice, 20 mg/kg i.p.): did not reveal significant differences
mouse body weight compared to untreated mice ([3]; nude mice, 50 mg/kg i.p., thrice a week for two weeks): did not reveal significant changes
IC50 (Neuro2a cells): 1600 ± 100 nM
MDC-positive cells, U87 (U87 cells [4]; 12 at 2 µM): 19.57%
MDC-positive cells, U87 (U87 cells [4]; 12 at 4 µM): 31.95%
percentage of apoptotic cells with dissipated ΔψM (U87 cells [5]; 6 h): 12.2%
percentage of apoptotic cells with dissipated ΔψM (U87 cells [5]; 18 h): 18.7%
percentage of apoptotic cells with dissipated ΔψM (U87 cells [5]; 24 h): 28%
